Data published in publication PMC6123649, “Structural basis for specific inhibition of the highly sensitive ShHTL7 receptor” (EMBO Reports, 2018).

Assays:
[1] = tested on: rice seeds cv. Nipponbare; assay: Rice seed germination assay and growth of seedlings; format: in vivo; details: 15 μM of Triton
Description: The rice seeds cv. Nipponbare were surface‐sterilized using 50 ml (2.5%) sodium hypochlorite with 0.4% of Tween‐20 for 15 min. After six subsequent washing steps with sterilized water, the rice seeds were kept in water at 30°C for overnight imbibition. About 2 ml of Triton X‐100 concentrations ranging from 1 to 100 μM and sterile MilliQ water (control) was added in 24‐well plates with six replications. One sterilized rice seed was put in each well and allowed to germinate for 48 h at 30°C. The germinated (radicle emergence) and non‐germinated seeds were recorded, and germination percentage was calculated. Then, same seeds were allowed to grow under light in growth cabinet for another 1 week. The length of […] seedlings was measured with roller and averaged.

OsD14 = molecular target: T1, OsD14 (Oryza sativa subsp. japonica, UniProt Q10QA5); assay: DSLS, aggregation temperature; format: binding; details: up to 100 μM of Triton
T1 construct: made in house; host or cells: E. coli BL21 (DE3)
T1 sequence (Q10QA5 1-318): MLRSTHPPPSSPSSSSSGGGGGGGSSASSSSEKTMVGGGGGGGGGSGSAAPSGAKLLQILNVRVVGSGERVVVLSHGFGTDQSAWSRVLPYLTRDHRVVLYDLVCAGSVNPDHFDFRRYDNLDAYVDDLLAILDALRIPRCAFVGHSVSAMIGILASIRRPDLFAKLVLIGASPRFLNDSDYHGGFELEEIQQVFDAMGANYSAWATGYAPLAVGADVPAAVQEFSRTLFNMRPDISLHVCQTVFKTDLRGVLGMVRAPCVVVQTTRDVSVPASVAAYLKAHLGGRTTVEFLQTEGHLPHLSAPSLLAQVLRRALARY
Description: (§1) The specific aggregation temperature, T agg, at which ShHTL7, ShHTL7L143Y, AtD14, and OsD14 aggregated in the presence or absence of Triton X‐100, GR24, and PAA was measured using DSLS on the Stargazer system (Harbinger Biotechnology and Engineering Corporation, Markham, Canada). Protein samples at a concentration of 10 μM were overlaid with mineral oil in a clear bottom 384‐well black plate (Corning) and heated from 20 to 95°C at 1°C/min; light scattering was detected by a CCD camera every 0.5°C in the presence or absence of varying concentrations of Triton X‐100, GR24, and PAA yielding the difference in aggregation temperature at a particular concentration from apoproteins (ΔT agg). Data were normalized, and ΔT agg plotted against the Triton X‐100, GR24, and PAA concentration. Resulting data were plotted to determine the change in T agg of all proteins when bound to Triton X‐100, GR24, and PAA using GraphPad (Prism 6).

AtD14 = molecular target: T2, AtD14 (Arabidopsis thaliana, UniProt Q9SQR3); assay: DSLS, aggregation temperature; format: binding; details: up to 100 μM of Triton
T2 construct: made in house; host or cells: E. coli BL21 (DE3)
T2 sequence (Q9SQR3 1-267): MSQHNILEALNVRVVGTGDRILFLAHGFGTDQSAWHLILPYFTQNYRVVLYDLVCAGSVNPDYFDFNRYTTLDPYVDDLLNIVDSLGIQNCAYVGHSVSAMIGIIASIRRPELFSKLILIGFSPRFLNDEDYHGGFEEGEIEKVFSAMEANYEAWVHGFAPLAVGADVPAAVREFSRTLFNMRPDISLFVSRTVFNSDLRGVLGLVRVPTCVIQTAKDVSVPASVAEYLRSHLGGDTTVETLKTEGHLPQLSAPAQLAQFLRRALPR
Description: as §1

ShHTL7 = molecular target: T3, ShHTL7 (Striga hermonthica, UniProt A0A0M3PNA2); assay: Yoshimulactone Green (YLG) hydrolysis competition assay; format: biochemical
T3 sequence (A0A0M3PNA2 1-271): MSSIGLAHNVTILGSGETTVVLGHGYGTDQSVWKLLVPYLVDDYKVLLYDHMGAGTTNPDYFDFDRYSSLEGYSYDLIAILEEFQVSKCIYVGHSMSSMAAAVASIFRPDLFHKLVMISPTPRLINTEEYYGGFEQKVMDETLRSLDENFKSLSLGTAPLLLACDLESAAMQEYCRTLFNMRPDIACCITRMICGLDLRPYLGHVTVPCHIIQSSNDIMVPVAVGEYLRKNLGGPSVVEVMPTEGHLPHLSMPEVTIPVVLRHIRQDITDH
Description: In vitro YLG hydrolysis assays were performed using 3 μM of ShHTL7, ShHTL7‐L143Y, AtD14, and OsD14 in a reaction buffer (1× PBS) with 0.1% dimethyl sulfoxide (DMSO) in a 100 μl volume on a 96‐well black plate (Greiner). The fluorescent intensity was measured by SpectraMax i3 (Molecular Devices) using an excitation wavelength of 480 nm and a detection wavelength of 520 nm. […] Protein‐Triton mixes were pre‐incubated for 30 min. 1 μM YLG (Tokyo Chemical Industry Co. Ltd.) was then added, and the assay was incubated for 60 min. The change in fluorescence observed over the course of 1 h incubation of YLG in buffer without protein was subtracted from the data collected in the presence of protein. The resulting relative fluorescence values were analyzed. The inhibitory curves and IC50 values were plotted using GraphPad (Prism 6) four‐parameter logistic curve. The rate of YLG hydrolysis by ShHTL7 was recorded following the above method at 10‐min interval for 2 h.

Orobanche cumana = tested on: Orobanche cumana; design: method as in PMID 23915294; details: concentrations above 0.001%; cited from earlier work
Orobanche minor = tested on: Orobanche minor; design: method as in PMID 23915294; details: concentrations above 0.001%; cited from earlier work

## Triton X-100
[1]
  effect on rice seed germination: did neither inhibit
  effect on rice seedling growth: nor affected seedling growth
OsD14
  effect on T agg: failed to affect
AtD14
  effect on T agg: failed to affect
ShHTL7; 3 μM ShHTL7, 1 μM YLG, pre‐incubation with compound, read-out: IC50, YLG hydrolysis by ShHTL7
  IC50: 470 ± 110 nM
ShHTL7; compared with non‐specific inhibitor Soporidine
  fold lower IC50 than that reported for Soporidine: 25 fold
Orobanche cumana
  effect on seed germination: hindered seed germination
Orobanche minor
  effect on seed germination: hindered seed germination
